Laboratory results published in US11339161B2, “Triazolo pyridines as modulators of gamma-secretase” (Boehringer Ingelheim International GmbH, priority 2017, dated 2022).
Where two headings read alike, the source gives them in different places.

Legend:
CSF1R (FMS) = CSF1R (FMS) (Homo sapiens, UniProt P07333); test: Z'-LYTE SelectScreen biochemical kinase assay CSF1R (FMS)
Excerpt: (§1) Thermo Fisher Scientific SelectScreen™ Biochemical Kinase Profiling Service Z′-LYTE™ Screening Protocol and Assay Conditions Assay Theory
(§2) The […] biochemical assay employs a fluorescence-based, coupled-enzyme format and is based on the differential sensitivity of phosphorylated and non-phosphorylated peptides to proteolytic cleavage. The peptide substrate is labeled with two fluorophores—one at each end—that make up a FRET pair. In the primary reaction, the kinase transfers the gamma-phosphate of ATP to a single tyrosine, serine or threonine residue in a synthetic FRET-peptide. In the secondary reaction, a site-specific protease recognizes and cleaves non-phosphorylated FRET-peptides. Phosphorylation of FRET-peptides suppresses cleavage by the Development Reagent. Cleavage disrupts FRET between the donor (i.e., coumarin) and acceptor (i.e., fluorescein) fluorophores on the FRET-peptide, whereas uncleaved, phosphorylated FRET-peptides maintain FRET. A ratiometric method, which calculates the ratio (Emission Ratio=Coumarin emission (445 nm)/Fluorescein emission (520 nm)) of donor emission to acceptor emission after excitation of the donor fluorophore at 400 nm, is used to quantitate reaction progress, as shown in the equation below. A significant benefit of this ratiometric method for quantitating reaction progress is the elimination of well-to-well variations in FRET-peptide concentration and signal intensities. As a result, the assay yields very high Z′-factor values (>0.7) at a low percent phosphorylation. Both cleaved and uncleaved FRET-peptides contribute to the fluorescence signals and therefore to the Emission Ratio. The extent of phosphorylation of the FRET-peptide can be calculated from the Emission Ratio. The Emission Ratio will remain low if the FRET-peptide is phosphorylated (i.e., no kinase inhibition) and will be high if the FRET-peptide is non-phosphorylated (i.e., kinase inhibition).
(§3) The Test Compounds are screened in 1% DMSO (final) in the well. For 10 point titrations, 3-fold serial dilutions are conducted from the starting concentration of the customer's choosing.
(§4) All Peptide/Kinase Mixtures are diluted to a 2× working concentration in the appropriate Kinase Buffer (see section Kinase Specific Assay Conditions for a complete description).
(§5) All ATP Solutions are diluted to a 4× working concentration in Kinase Buffer (50 mM HEPES pH 7.5, 0.01% BRIJ-35, 10 mM MgCl2, 1 mM EGTA). ATP Km apparent is previously determined using a Z″-LYTE assay.
(§6) The Development Reagent is diluted in Development Buffer (see section Kinase-Specific Assay Conditions—Direct and Cascade for a complete description).
(§7) Bar-coded Corning, low volume NBS, black 384-well plate (Corning Cat. #4514) • 1. 100 nL—100× Test Compound in 100% DMSO • 2. 2.4 μL—Kinase buffer • 3. 5 μL—2× Peptide/Kinase Mixture • 4. 2.5 μL—4×ATP Solution • 5. 30—second plate shake • 6. 60—minute Kinase Reaction incubation at room temperature • 7. 5 μL—Development Reagent Solution • 8. 30—second plate shake • 9. 60—minute Development Reaction incubation at room temperature • 10. Read on fluorescence plate reader and analyze the data Z′-LYTE Assay Controls
(§8) SelectScreen Kinase Profiling Service uses XLfit from IDBS. The dose response curve is curve fit to model number 205 (sigmoidal dose-response model).
The 2×CSF1R (FMS)/Tyr 01 mixture is prepared in 50 mM HEPES pH 7.5, 0.01% BRIJ-35, 10 mM MgCl2, 1 mM EGTA. The final 10 μL Kinase Reaction consists of 0.2-40 ng CSF1R (FMS) and 2 μM Tyr 01 in 50 mM HEPES pH 7.5, 0.01% BRIJ-35, 10 mM MgCl2, 1 mM EGTA. After the 1 hour Kinase Reaction incubation, 5 μL of a 1:256 dilution of Development Reagent B is added.

Aβ42 production = test: Inhibition of Aβ42 production in H4 neuroglioma cells stably expressing human APP695 (MSD electrochemiluminescence); type: cell-based; settings: H4 neuroglioma cells expressing human APP695, 22 hours incubation; Table 4a
CDK5/p35 = CDK5/p35 (Homo sapiens, UniProt Q00535); test: Z'-LYTE SelectScreen biochemical kinase assay CDK5/p35
Sequence of CDK5/p35 (Q00535 whole entry): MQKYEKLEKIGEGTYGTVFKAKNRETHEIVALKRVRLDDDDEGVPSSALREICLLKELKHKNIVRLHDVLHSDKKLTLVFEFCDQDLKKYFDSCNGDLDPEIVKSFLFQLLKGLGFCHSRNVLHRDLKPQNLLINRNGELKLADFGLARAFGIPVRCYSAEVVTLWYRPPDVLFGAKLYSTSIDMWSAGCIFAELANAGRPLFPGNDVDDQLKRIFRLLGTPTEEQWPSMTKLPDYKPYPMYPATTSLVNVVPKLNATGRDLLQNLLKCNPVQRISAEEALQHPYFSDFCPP
Sequence of CDK5/p35 (Q15078 whole entry partner): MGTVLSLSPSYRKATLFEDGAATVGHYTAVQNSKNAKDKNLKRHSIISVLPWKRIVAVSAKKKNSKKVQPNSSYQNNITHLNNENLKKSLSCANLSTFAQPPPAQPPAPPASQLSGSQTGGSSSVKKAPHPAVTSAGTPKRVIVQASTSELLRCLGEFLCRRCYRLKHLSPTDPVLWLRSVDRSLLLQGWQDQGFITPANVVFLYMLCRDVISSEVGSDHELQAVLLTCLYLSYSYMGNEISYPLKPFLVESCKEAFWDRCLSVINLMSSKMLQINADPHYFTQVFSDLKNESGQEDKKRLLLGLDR
Excerpt: as §1, §2, §3, §4, §5, §6, §7, §8
The 2×CDK5/p35/Ser/Thr 12 mixture is prepared in 50 mM HEPES pH 7.5, 0.01% BRIJ-35, 10 mM MgCl2, 1 mM EGTA. The final 10 μL Kinase Reaction consists of 0.14-1.3 ng CDK5/p35 and 2 μM Ser/Thr 12 in 50 mM HEPES pH 7.5, 0.01% BRIJ-35, 10 mM MgCl2, 1 mM EGTA. After the 1 hour Kinase Reaction incubation, 5 μL of a 1:4096 dilution of Development Reagent A is added.

[1] = 10 μmolar compound concentration, ATP at Km app, read-out: CSF1R (FMS) inhibition
[2] = read-out: % Inhibition mean CSF1R (FMS)
[3] = 10 μmolar compound concentration, ATP at Km app, read-out: CDK5/p35 inhibition
[4] = read-out: % Inhibition mean CDK5/p35

Sequence of CSF1R (FMS) (P07333 20-972): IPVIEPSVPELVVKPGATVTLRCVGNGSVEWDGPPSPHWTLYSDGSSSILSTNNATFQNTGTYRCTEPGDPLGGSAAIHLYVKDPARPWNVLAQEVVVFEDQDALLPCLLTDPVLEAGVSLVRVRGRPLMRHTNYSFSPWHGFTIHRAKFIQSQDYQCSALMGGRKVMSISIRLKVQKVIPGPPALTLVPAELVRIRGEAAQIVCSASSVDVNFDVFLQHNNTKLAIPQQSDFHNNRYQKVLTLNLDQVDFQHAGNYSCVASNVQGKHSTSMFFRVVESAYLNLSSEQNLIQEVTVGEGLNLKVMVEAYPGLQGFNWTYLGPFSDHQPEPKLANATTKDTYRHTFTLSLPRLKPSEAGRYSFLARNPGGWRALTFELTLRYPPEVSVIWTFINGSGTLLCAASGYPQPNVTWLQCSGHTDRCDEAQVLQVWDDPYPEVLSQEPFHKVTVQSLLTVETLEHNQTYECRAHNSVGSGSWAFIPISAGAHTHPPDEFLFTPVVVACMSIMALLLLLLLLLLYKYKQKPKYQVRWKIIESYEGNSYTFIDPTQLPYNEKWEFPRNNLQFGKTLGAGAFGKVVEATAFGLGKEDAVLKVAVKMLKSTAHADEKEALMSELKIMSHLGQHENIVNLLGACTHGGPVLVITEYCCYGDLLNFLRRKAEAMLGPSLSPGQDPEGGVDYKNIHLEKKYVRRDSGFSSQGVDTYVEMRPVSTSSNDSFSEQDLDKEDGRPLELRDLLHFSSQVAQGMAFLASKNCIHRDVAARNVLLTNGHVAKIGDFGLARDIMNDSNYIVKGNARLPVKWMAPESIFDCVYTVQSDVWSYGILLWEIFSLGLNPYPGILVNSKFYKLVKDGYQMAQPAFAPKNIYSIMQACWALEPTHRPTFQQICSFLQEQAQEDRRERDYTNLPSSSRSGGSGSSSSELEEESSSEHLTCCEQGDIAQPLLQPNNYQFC

Row | Structure (SMILES) | inhibition at 10 µM (CSF1R (FMS); [1]) | inhibition at 10 µM (CSF1R (FMS); [2]) | IC50 (Aβ42 production) | inhibition at 10 µM (CDK5/p35; [3]) | inhibition at 10 µM (CDK5/p35; [4])
1 | CCn1ncc2c1CCC(Nc1nc3c(-c4ccc(OC)nc4)cccn3n1)C2 (stereo not shown) [Example 71, (1-Ethyl-4,5,6,7-tetrahydro-1H-indazol-5-yl)-[8-(6-methoxy-pyridin-3-yl)-[1,2,4]triazolo[1,5-a]pyridine-2-yl]-amine] | 40 to 80% | 62% | 90 nM | 40 to 80% | 53%
2 | CCn1ncc2c1CC[C@@H](Nc1nc3c(-c4ccc(F)cc4C)cccn3n1)C2 [Example R-42, (R)-(1-Ethyl-4,5,6,7-tetrahydro-1H-indazol-5-yl)-[8-(4-fluoro-2-methyl-phenyl)-[1,2,4]triazolo[1,5-a]pyridine-2-yl]-amine] | < 40% | 31% | 40 nM | < 40% | 39%
3 | CCn1ncc2c1CC[C@@H](Nc1nc3c(-c4ccc(F)c(Cl)c4)cccn3n1)C2 [Example R-61, (R)-[8-(3-Chloro-4-fluoro-phenyl)-[1,2,4]triazolo[1,5-a]pyridine-2-yl]-(1-ethyl-4,5,6,7-tetrahydro-1H-indazol-5-yl)-amine] | < 40% | 18% | 9 nM | < 40% | 25%

Next, values leading:

Row | inhibition at 10 µM (CSF1R (FMS); [1]) | inhibition at 10 µM (CSF1R (FMS); [2]) | IC50 (Aβ42 production) | inhibition at 10 µM (CDK5/p35; [3]) | inhibition at 10 µM (CDK5/p35; [4]) | Structure (SMILES)
4 | 40 to 80% | 79% | 40 nM | 40 to 80% | 56% | CCn1ncc2c1CCC(Nc1nc3c(-c4cncc(Cl)c4)cccn3n1)C2 (stereo not shown) [Example 73, [8-(5-Chloro-pyridin-3-yl)-[1,2,4]triazolo[1,5-a]pyridine-2-yl]-(1-ethyl-4,5,6,7-tetrahydro-1H-indazol-5-yl)-amine]
5 | < 40% | 18% | 194 nM | < 40% | 10% | CCn1ncc2c1CC[C@H](Nc1nc3c(-c4ccc(F)c(Cl)c4)cccn3n1)C2 [Example S-61, (S)-[8-(3-Chloro-4-fluoro-phenyl)-[1,2,4]triazolo[1,5-a]pyridine-2-yl]-(1-ethyl-4,5,6,7-tetrahydro-1H-indazol-5-yl)-amine]
